Data published in the supplement of paper PMC10307832.

Columns and labels:
Assay in all cases: relative viability (nuclei count vs DMSO), 5 days (fraction); higher = more cells survive
[1] = compound: C(C(=O)C(=O)O)Br [Bromopyruvate] + CC(=O)c1c(C)c2cnc(Nc3ccc(N4CCNCC4)cn3)nc2n(C2CCCC2)c1=O [Palbociclib] (partner 0.5 µM)
How it was run: (§1)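 Lung cancer cell lines in 1536-well plates got either a single drug or a fixed anchor-drug dose together with five library-drug doses (not always all listed) in √10 steps, by pin tool, on the day after seeding. Nuclei were counted after 5 days, and relative viability is the treated-to-vehicle ratio of nuclei counts. Values are medians of duplicate plates.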

[2] = compound: C(C(=O)C(=O)O)Br [Bromopyruvate] + CCNC(=O)c1noc(-c2cc(C(C)C)c(O)cc2O)c1-c1ccc(CN2CCOCC2)cc1 [Luminespib] (partner 0.01 µM)
How it was run: as §1

Bromopyruvate + AZD7762 = compound: C(C(=O)C(=O)O)Br [Bromopyruvate] + NC(=O)Nc1cc(-c2cccc(F)c2)sc1C(=O)N[C@H]1CCCNC1 [AZD7762] (partner 0.2 µM)
How it was run: as §1

[3] = compound: CC(O)(CS(=O)(=O)c1ccc(F)cc1)C(=O)Nc1ccc(C#N)c(C(F)(F)F)c1 [Bicalutamide] + CC(=O)c1c(C)c2cnc(Nc3ccc(N4CCNCC4)cn3)nc2n(C2CCCC2)c1=O [Palbociclib] (partner 0.5 µM)
How it was run: as §1

Cell Line | relative viability ([1]; first compound 1 µM) | relative viability ([1]; first compound 3.162 µM) | relative viability ([1]; first compound 10 µM) | relative viability ([1]; first compound 31.62 µM) | relative viability ([1]; first compound 100 µM) | relative viability ([2]; first compound 1 µM) | relative viability ([2]; first compound 3.162 µM) | relative viability ([2]; first compound 10 µM) | relative viability ([2]; first compound 31.62 µM) | relative viability ([2]; first compound 100 µM) | relative viability (Bromopyruvate + AZD7762; first compound 1 µM) | relative viability (Bromopyruvate + AZD7762; first compound 3.162 µM) | relative viability (Bromopyruvate + AZD7762; first compound 10 µM) | relative viability (Bromopyruvate + AZD7762; first compound 31.62 µM) | relative viability (Bromopyruvate + AZD7762; first compound 100 µM) | relative viability ([3]; first compound 0.08 µM) | relative viability ([3]; first compound 0.253 µM) | relative viability ([3]; first compound 0.8 µM) | relative viability ([3]; first compound 2.53 µM)
H3255 | 0.314 | 0.31 | 0.297 | 0.308 | 0.309 | 0.859 | 1 | 1.05 | 0.896 | 1.04 | 0.907 | 0.86 | 0.964 | 0.886 | 0.836 | 0.35 | 0.324 | 0.308 | 0.302
201T | 0.341 | 0.348 | 0.344 | 0.35 | 0.382 | 1.04 | 1.04 | 1.08 | 1.05 | 1.12 | 0.638 | 0.715 | 0.6 | 0.594 | 0.603 | 0.379 | 0.351 | 0.386 | 0.365
HOP-62 | 0.432 | 0.443 | 0.416 | 0.343 | 0.341 | 0.887 | 0.97 | 0.84 | 0.934 | 0.9 | 0.498 | 0.573 | 0.473 | 0.444 | 0.665 | 0.47 | 0.464 | 0.566 | 0.502
CAL-12T | 0.429 | 0.444 | 0.552 | 0.395 | 0.285 | 0.375 | 0.421 | 0.606 | 0.285 | 0.357 | 0.633 | 0.588 | 0.611 | 0.568 | 0.637 | 0.505 | 0.352 | 0.533 | 0.329
NCI-H1755 | 0.477 | 0.43 | 0.45 | 0.431 | 0.456 | 0.501 | 0.516 | 0.421 | 0.466 | 0.465 | 0.432 | 0.476 | 0.381 | 0.51 | 0.473 | 0.472 | 0.42 | 0.473 | 0.43
NCI-H2085 | 0.491 | 0.469 | 0.489 | 0.539 | 0.521 | 0.417 | 0.425 | 0.508 | 0.396 | 0.217 | 0.947 | 1.01 | 1.04 | 0.991 | 0.95 | 0.494 | 0.465 | 0.478 | 0.468
